# Measured values from patent publication US8143228B2, “Agents capable of downregulating an MSF-A dependent HIF-1α and use thereof in cancer treatment” (Medical Research Fund of Tel Aviv Sourasky Medical Center, priority 2004, dated 2012).
# Where a SMILES comes first, the peptide text is derived from it. The star is where a group is joined. Cbz = O=C(OCc1ccccc1)*
# Legend:
# HIF-1α protein = HIF-1α protein stability assays (cycloheximide treatment, pulse-chase) in PC-3 cells; type: cell-based; settings: PC-3-Neo cells, within 20 minutes, CHX 10 μg/ml, normalized to α-tubulin
# Procedure: FIGS. 16a-c are Western blot analyses depicting the effect of cycloheximide (CHX) on the expression level of HIF-1α (FIG. 16a) and α-tubulin (FIG. 16b) in PC-3-Neo or PC-3-MSF-A cells grown under normoxia. CHX was added to PC-3-Neo (lanes 1-5) or PC-3-MSF-A (lanes 6-10) at a final concentration of 10 μg/ml, for 0 (lanes 1 and 6), 5 (lanes 2 and 7), 15 (lanes 3 and 8), 30 (lanes 4 and 9) and 45 (lanes 5 and 10) minutes. Whole cell extracts were prepared and resolved by SDS-PAGE and Western blotting was performed with antibodies against HIF-1α (FIG. 16a) or α-tubulin (FIG. 16b). FIG. 16c is a graph depicting quantitation of the results obtained in FIGS. 16a and b expressed as the ratio of HIF-1α expression level normalized to that of α-tubulin. Note, the relatively slow degradation of HIF-1α in cells over-expressing the MSF-A protein, with a degradation half-life of 40 minutes as compared to the degradation half-life of less than 20 minutes in PC-3-Neo cells (FIG. 16c).
# FIGS. 17a-b depict pulse-chase analysis of HIF-1α. […] FIG. 17b-quantification of the autoradiographic HIF-1α signal by densitometry.
# HIF-1α protein stability assays—Cells were plated into 6-well plates and grown to 70% confluence. […] Immunoprecipitates were analyzed on SDS-PAGE and visualized by autoradiography.
# HIF-1α and Ub-HIF-1α = test: Proteasome inhibition and HIF-1α ubiquitination, Western blot; type: cell-based; settings: PC-3-Neo cells, 4 hours, 5 and 20 μM
# Procedure: FIGS. 19a-b are Western blot analyses depicting the effect of proteasome inhibition on HIF-1α (FIG. 19a) or actin (FIG. 19b) expression levels in PC-3-MSF-A or PC-3-Neo cells. PC-3-Neo (lanes 1-3) and PC-3-MSF-A (lanes 4-6) cells were treated for 4 hours with either 0.1 DMSO (lanes 1 and 4) or with 5 (lanes 2 and 5) and 20 (lanes 3 and 6) μM MG-132. Whole cell lysates were prepared and equal amounts of protein from each cell lysate were resolved by SDS-PAGE, transferred and immunoblotted with antibodies against HIF-1α (FIG. 19a) and actin (FIG. 19b). Ub-HIF-1α points to ubiquitinated HIF-1α protein species.
# FIGS. 20a-b are Western blot analyses of HIF-1α immunoprecipitates depicting the expression level of HIF-1α (FIG. 20a) and ubiquitin (FIG. 20b) in PC-3-Neo and PC-3-MSF-A cells. PC-3-Neo (lanes 1-2) and PC-3-MSF-A (lanes 3-4) cells were treated for 4 hours with either 0.1 DMSO (lanes 1 and 3) or with 10 μM MG-132 (lanes 2 and 4). Whole cell lysates were prepared and subjected to immunoprecipitation (IP) with HIF-1α antibody. Immunoprecipitates were resolved on SDS-PAGE and immunoblotted (IB) with HIF-1α (FIG. 20a) and ubiquitin (FIG. 20b) antibodies. Ub-HIF-1α points to ubiquitinated HIF-1α protein species.
# To study the ubiquitination of the endogenous HIF-1α in cells over-expressing MSF-A protein, the proteasome inhibitor MG-132 was used. […]
Structure (SMILES),HIF-1α protein levels after exposure to CHX (HIF-1α protein),expression of HIF-1α and Ub-HIF-1α (HIF-1α and Ub-HIF-1α)
"C[C@@H]1C[C@@H]([C@H](O)CC2CC(=O)NC(=O)C2)C(=O)[C@@H](C)C1 [CHX, cycloheximide]",about 50%,
CC(C)C[C@@H](C=O)NC(=O)[C@H](CC(C)C)NC(=O)[C@H](CC(C)C)NC(=O)OCc1ccccc1 [MG-132] (Cbz-Leu-Leu-Leu-aldehyde),,induced the expression of HIF-1α and Ub-HIF-1α
